According to patent US20120028897A1, “METHODS AND COMPOSITIONS FOR THE TREATMENT OF FLUID RETENTION DISORDERS” (priority 2008, published 2012):

Key:
[1] = tested on: Mice; assay: Natriuretic response in mice; type: in vivo, mouse
[2] = target: T1, GC-C receptor, GC-C-expressing T84 cell line (Homo sapiens, UniProt P25092); assay: T84 cell cyclic GMP bioassay; type: cell-based
T1 construct: measuring cyclic GMP synthesis in the GC-C-expressing T84 cell line; endogenous in cells; host or cells: T84 colon carcinoma cells
Protocol: Bioassay of huUgnA-like activity. The concentration of huUgnA-like bioactivity in infused peptide solutions and in urine collected during experiments was measured using a T84 cell-based bioassay, as described previously. T84 cells are a colon carcinoma cell line that increases cyclic GMP production in response to GC-C receptor agonists such as Ugn, Gn and ST core peptide. T84 cells were grown to near confluence in 12 well culture clusters, and then incubated with unknowns or standard concentrations of huUgnA. Standards or urine samples were diluted into bioassay medium (1 mM 3-isobutyl-1-methylxanthine, 0.03 mM phenol red, 137 mM NaCl, 5.4 mM KCl, 0.25 mM Na2HPO4, 0.44 mM KH2PO4, 1.3 mM CaCl2, 1.0 mM MgSO4, 4.2 mM NaHCO3, 10 mM HEPES buffered at pH 7.0) and the pH was adjusted to 7.0, if required, using the phenol red indicator dye as a guide. This pH adjustment was necessary, as it is well-established that the response of T84 cells to UGn is highly pH dependent. The broad spectrum phosphodiesterase inhibitor (isobutyl methylxanthine) was included to prevent degradation of cyclic GMP. After 30 min, the cells were lysed and cyclic GMP levels measured by radioimmunoassay (Biomedical Technologies Inc Stoughton Mass.). Standards and unknowns were assayed in triplicate. […]

T1 sequence (P25092 24-1073): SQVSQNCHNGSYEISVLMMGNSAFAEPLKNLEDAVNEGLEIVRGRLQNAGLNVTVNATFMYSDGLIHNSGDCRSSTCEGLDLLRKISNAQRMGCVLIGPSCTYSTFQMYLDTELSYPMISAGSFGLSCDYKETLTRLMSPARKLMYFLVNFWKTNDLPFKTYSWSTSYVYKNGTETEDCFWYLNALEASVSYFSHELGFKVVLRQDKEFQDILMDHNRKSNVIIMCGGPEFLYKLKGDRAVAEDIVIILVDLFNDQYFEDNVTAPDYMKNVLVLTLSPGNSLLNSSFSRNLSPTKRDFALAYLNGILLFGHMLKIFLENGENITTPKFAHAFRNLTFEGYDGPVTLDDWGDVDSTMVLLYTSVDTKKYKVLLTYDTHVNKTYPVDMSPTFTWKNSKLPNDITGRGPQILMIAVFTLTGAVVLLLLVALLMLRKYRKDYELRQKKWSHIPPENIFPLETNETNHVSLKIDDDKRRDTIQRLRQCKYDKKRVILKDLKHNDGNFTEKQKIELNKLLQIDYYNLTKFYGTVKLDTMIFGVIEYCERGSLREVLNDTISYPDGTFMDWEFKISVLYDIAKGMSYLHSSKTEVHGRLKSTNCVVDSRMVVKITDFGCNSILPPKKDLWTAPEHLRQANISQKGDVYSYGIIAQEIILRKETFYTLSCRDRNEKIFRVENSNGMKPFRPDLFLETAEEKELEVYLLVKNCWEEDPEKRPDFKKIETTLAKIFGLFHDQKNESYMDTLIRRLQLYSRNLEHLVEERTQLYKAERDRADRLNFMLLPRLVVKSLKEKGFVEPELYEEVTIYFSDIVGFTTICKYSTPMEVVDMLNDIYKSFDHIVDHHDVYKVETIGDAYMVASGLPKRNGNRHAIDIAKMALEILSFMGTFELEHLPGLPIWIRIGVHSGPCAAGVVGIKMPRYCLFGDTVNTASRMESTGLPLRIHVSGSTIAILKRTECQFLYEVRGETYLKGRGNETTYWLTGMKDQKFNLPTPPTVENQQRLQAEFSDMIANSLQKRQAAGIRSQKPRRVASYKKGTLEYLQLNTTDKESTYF

## CC(C)C[C@H](NC(=O)[C@@H]1CSSC[C@@H]2NC(=O)[C@H](CC(C)C)NC(=O)[C@H](CCC(=O)O)NC(=O)[C@@H](NC(=O)[C@H](CC(=O)O)NC(=O)[C@H](CC(=O)O)NC(=O)[C@@H](N)CC(N)=O)CSSC[C@H](NC(=O)[C@H](C)NC(=O)[C@H](C(C)C)NC(=O)[C@H](CC(N)=O)NC(=O)[C@H](C(C)C)NC2=O)C(=O)N[C@@H]([C@@H](C)O)C(=O)NCC(=O)N1)C(=O)O (single isomer, unassigned) [huUgnB, Asn Asp Asp Cys Glu Leu Cys Val Asn Val Ala Cys Thr Gly Cys Leu]
[1]
  natriuretic response: exhibit a natriuretic response
[2]; 25 nM huUgnA with 180 nM huUgnB (FIG. 2B)
  T84 cell cGMP response on co-application of huUgnA and B: not different from those evoked by huUgnA alone
[2]; GC-C-expressing T84 cell line
  potency in activating cyclic GMP synthesis, fold less potent than the A isoform: more than 100 fold
